# Assay results from patent publication US20080269170A1, “Novel 2,4-Dianilinopyrimidine Derivatives, the Preparation Thereof, Their Use as Medicaments, Pharmaceutical Compositions and, in Particular, as IKK Inhibitors” (sanofi-aventis, priority 2005, published 2008).
# Structures can show the parent of a compound that is named as a salt.
row,melting point [°C],Compound
1,216 to 217,"CN(C1CCN(CC(C)(C)O)CC1)S(=O)(=O)c1ccc(Nc2nccc(Nc3ccc(F)cc3)n2)cc1 [Example 49, 4-[4-(4-Fluorophenylamino)pyrimidin-2-yl-amino]-N-[1-(2-hydroxy-2-methylpropyl)piperidin-4-yl]-N-methylbenzenesulfonamide]"
2,188,"Cc1cc(Nc2ccnc(Nc3ccc(S(=O)(=O)N(C)C4CCCN(C)C4)cc3)n2)ccc1F (centres unmarked) [Example 139, 4-({4-[(4-Fluoro-3-methylphenyl)amino]-pyrimidin-2-yl}amino)-N-methyl-N-(1-methylpiperidin-3-yl)benzenesulfonamide]"
3,155,"Cc1ncc(CN2CCC(N(C)S(=O)(=O)c3ccc(Nc4nccc(Nc5ccc(F)cc5)n4)cc3)CC2)[nH]1 [Example 30, 4-[4-(4-Fluorophenylamino)pyrimidin-2-ylamino]-N-methyl-N-[1-(2-methyl-3H-imidazol-4-ylmethyl)piperidin-4-yl]benzenesulfonamide]"
4,205,Cc1cc(Nc2ccnc(Nc3ccc(S(=O)(=O)N(CCN)C4CNC4)cc3)n2)ccc1F (as salt: hydrochloride)
5,275,CN(C1CCNCC1)S(=O)(=O)c1ccc(Nc2nccc(Nc3ccc(F)c(F)c3)n2)cc1 (as salt: hydrochloride)
6,245 to 247,"NCCCN(C1CCNCC1)S(=O)(=O)c1ccc(Nc2nccc(Nc3ccc(F)cc3)n2)cc1 (as salt: hydrochloride) [Example 92, N-(3-Aminopropyl)-4-({4-[(4-fluorophenyl)-amino]pyrimidin-2-yl}amino)-N-piperidin-4-ylbenzene-sulfonamide hydrochloride]"
7,233 to 234.4,"CN1CCC(N(C)C(=O)CNS(=O)(=O)c2ccc(Nc3nccc(Nc4ccc(F)cc4)n3)cc2)CC1 [Example 25, 2-{4-[4-(4-Fluorophenylamino)pyrimidin-2-ylamino]benzenesulfonylamino}-N-methyl-N-(1-methyl-piperidin-4-yl)acetamide]"
8,253 to 254,"O=C(CNS(=O)(=O)c1ccc(Nc2nccc(Nc3ccc(F)cc3)n2)cc1)NC1CCOCC1 [Example 2, 2-{4-[4-(4-Fluorophenylamino)pyrimidin-2-ylamino]benzenesulfonylamino}-N-(tetrahydropyran-4-yl)-acetamide]"
9,250,"CN1CCC(N(CCN2CCCC2)S(=O)(=O)c2ccc(Nc3nccc(Nc4ccc(F)cc4)n3)cc2)CC1 [Example 89, 4-({4-[(4-Fluorophenyl)amino]pyrimidin-2-yl}amino)-N-(1-methylpiperidin-4-yl)-N-(2-pyrrolidin-1-ylethyl)benzenesulfonamide]"
10,120,"CC(C)(O)CNCCN(C1CCNCC1)S(=O)(=O)c1ccc(Nc2nccc(Nc3ccc(F)cc3)n2)cc1 [Example 102, 4-({4-[(4-Fluorophenyl)amino]pyrimidin-2-yl}amino)-N-{2-[(2-hydroxy-2-methylpropyl)amino]ethyl}-N-piperidin-4-ylbenzenesulfonamide]"
11,205 to 210,"CN(C1CCNCC1)S(=O)(=O)c1ccc(Nc2nccc(Nc3ccc(F)cc3)n2)cc1 (as salt: hydrochloride) [Example 8, 4-[4-(4-Fluorophenylamino)pyrimidin-2-ylamino]-N-methyl-N-piperidin-4-yl-benzenesulfonamide]"
12,172 to 173,"Cc1cc(CN2CCC(N(C)S(=O)(=O)c3ccc(Nc4nccc(Nc5ccc(F)c(C)c5)n4)cc3)CC2)no1 [Example 138, 4-({4-[(4-Fluoro-3-methylphenyl)amino]-pyrimidin-2-yl}amino)-N-methyl-N-{1-[(5-methylisoxazol-3-yl)methyl]piperidin-4-yl}benzenesulfonamide]"
13,192,"CNC1CCC(N(C)S(=O)(=O)c2ccc(Nc3nccc(Nc4ccc(F)cc4)n3)cc2)CC1 (stereo not drawn) [Example 121, 4-({4-[(4-Fluorophenyl)amino]pyrimidin-2-yl}amino)-N-methyl-N-[4-cis(methylamino)cyclohexyl]-benzenesulfonamide]"
14,110 to 120,"Cc1cc(Nc2ccnc(Nc3ccc(S(=O)(=O)N(C)C4CCN(C)CC4)cc3)n2)ccc1F [Example 86, 4-({4-[(4-fluoro-3-methylphenyl)amino]-pyrimidin-2-yl}amino)-N-methyl-N-(1-methylpiperidin-4-yl)benzenesulfonamide]"
15,162 to 163,"CCN1CCC(N(C)S(=O)(=O)c2ccc(Nc3nccc(Nc4ccc(F)cc4)n3)cc2)CC1 [Example 10, N-(1-Ethylpiperidin-4-yl)-4-[4-(4-fluoro-phenylamino)pyrimidin-2-ylamino]-N-methylbenzene-sulfonamide]"
16,184.5,CN1C2CCC1CC(N(C)S(=O)(=O)c1ccc(Nc3nccc(Nc4ccc(F)cc4)n3)cc1)C2 (centres unmarked)

row,melting point [°C],Compound
1,194,"CCSCCN1CCC(NS(=O)(=O)c2ccc(Nc3nccc(Nc4ccc(F)cc4)n3)cc2)CC1 [Example 125, N-{1-[2-(Ethylthio)ethyl]piperidin-4-yl}-4-({4-[(4-fluorophenyl)amino]pyrimidin-2-yl}amino)-benzenesulfonamide]"
2,232,"CCCN(C1CCN(C)CC1)S(=O)(=O)c1ccc(Nc2nccc(Nc3ccc(F)cc3)n2)cc1 [Example 130, 4-({4-[(4-Fluorophenyl)amino]pyrimidin-2-yl}amino)-N-propyl-N-(1-methylpiperidin-4-yl)benzene-sulfonamide]"
3,207,"CN(C1CCN(Cc2cccc(F)c2)CC1)S(=O)(=O)c1ccc(Nc2nccc(Nc3ccc(F)cc3)n2)cc1 [Example 32, N-[1-(3-Fluorobenzyl)piperidin-4-yl]-4-[4-(4-fluorophenylamino)pyrimidin-2-ylamino]-N-methyl-benzenesulfonamide]"
4,200,"CN1CCC(N(C[C@@H]2CCCN2)S(=O)(=O)c2ccc(Nc3nccc(Nc4ccc(F)cc4)n3)cc2)CC1 (as salt: hydrochloride) [Example 123, 4-({4-[(4-Fluorophenyl)amino]pyrimidin-2-yl}amino)-N-(1-methylpiperidin-4-yl)-N-[(2S)-pyrrolidin-2-ylmethyl]benzenesulfonamide]"
5,220,"CNCCN(C1CCN(C)CC1)S(=O)(=O)c1ccc(Nc2nccc(Nc3ccc(F)cc3)n2)cc1 (as salt: hydrochloride) [Example 46, 4-[4-(4-Fluorophenylamino)pyrimidin-2-yl-amino]-N-(2-methylaminoethyl)-N-(1-methylpiperidin-4-yl)benzenesulfonamide hydrochloride]"
6,200,"CN1CCC(N(C[C@H]2CCCN2)S(=O)(=O)c2ccc(Nc3nccc(Nc4ccc(F)cc4)n3)cc2)CC1 (as salt: hydrochloride) [Example 124, 4-({4-[(4-Fluorophenyl)amino]pyrimidin-2-yl}amino)-N-(1-methylpiperidin-4-yl)-N-[(2R)-pyrrolidin-2-ylmethyl]benzenesulfonamide]"
7,162 to 165,"CN(C)CCN(C1CCS(=O)(=O)C1)S(=O)(=O)c1ccc(Nc2nccc(Nc3ccc(F)cc3)n2)cc1 (centres unmarked) [Example 114, N-[2-(Dimethylamino)ethyl]-N-(1,1-dioxido-tetrahydro-3-thienyl)-4-({4-[(4-fluorophenyl)amino]-pyrimidin-2-yl}amino)benzenesulfonamide]"
8,196 to 197,"Cc1cc(Nc2ccnc(Nc3ccc(S(=O)(=O)N(C)C4CCN(Cc5cncs5)CC4)cc3)n2)ccc1F [Example 132, 4-({4-[(4-Fluoro-3-methylphenyl)amino]-pyrimidin-2-yl}amino)-N-methyl-N-{1-[(1-thiazol-5-yl)-methyl]piperidin-4-yl}benzenesulfonamide]"
9,195 to 196,"CN(C1CCN(CCC(F)(F)F)CC1)S(=O)(=O)c1ccc(Nc2nccc(Nc3ccc(F)cc3)n2)cc1 [Example 107, 4-({4-[(4-Fluorophenyl)amino]pyrimidin-2-yl}amino)-N-methyl-N-[1-(3,3,3-trifluoropropyl)piperidin-4-yl]benzenesulfonamide]"
10,140 to 142,"CN1CCC(N(C)S(=O)(=O)c2ccc(Nc3nc(Cl)cc(Nc4ccc(F)cc4)n3)cc2)CC1 [Example 20, 4-[4-Chloro-6-(4-fluorophenylamino)pyrimidin-2-ylamino]-N-methyl-N-(1-methylpiperidin-4-yl)benzenesulfonamide]"
11,204,"CN(C1CCN(CCS(C)(=O)=O)CC1)S(=O)(=O)c1ccc(Nc2nccc(Nc3ccc(F)c(F)c3)n2)cc1 [Example 163, 4-({4-[(3,4-Difluorophenyl)amino]pyrimidin-2-yl}amino)-N-methyl-N-{1-[2-(methyl-sulfonyl)ethyl]piperidin-4-yl}benzenesulfonamide]"
12,218,"CN1CCC(N(C2CC2)S(=O)(=O)c2ccc(Nc3nccc(Nc4ccc(F)cc4)n3)cc2)CC1 [Example 14, N-Cyclopropyl-4-[4-(4-fluorophenylamino)-pyrimidin-2-ylamino]-N-(1-methylpiperidin-4-yl)benzene-sulfonamide]"
13,220,"Cc1cc(Nc2ccnc(Nc3ccc(S(=O)(=O)N(CCN)C4CCN(C)CC4)cc3)n2)ccc1F (as salt: hydrochloride) [Example 95, N-(2-Aminoethyl)-4-({4-[(4-fluoro-3-methyl-phenyl)amino]pyrimidin-2-yl}amino)-N-(1-methylpiperidin-4-yl)benzenesulfonamide hydrochloride]"
14,130,"Cc1cc(CN2CCC(N(C)S(=O)(=O)c3ccc(Nc4nccc(Nc5ccc(F)c(C)c5)n4)cc3)CC2)[nH]n1 [Example 136, 4-({4-[(4-Fluoro-3-methylphenyl)amino]-pyrimidin-2-yl}amino)-N-methyl-N-{1-[(5-methyl-2H-pyrazol-3-yl)methyl]piperidin-4-yl}benzenesulfonamide]"
15,> 220,NCCN(C1CNC1)S(=O)(=O)c1ccc(Nc2nccc(Nc3ccc(F)cc3)n2)cc1 (as salt: hydrochloride)
16,182 to 183,"CN(C1CCN(Cc2ccccc2F)CC1)S(=O)(=O)c1ccc(Nc2nccc(Nc3ccc(F)cc3)n2)cc1 [Example 31, N-[1-(2-Fluorobenzyl)piperidin-4-yl]-4-[4-(4-fluorophenylamino)pyrimidin-2-ylamino]-N-methyl-benzenesulfonamide]"
